Experimental data reported in patent US10087427B2, “Glycosyltransferase gene and use thereof” (SUNTORY HOLDINGS LIMITED, priority 2014, dated 2018).

Test system: NmGT22 protein
Assay: Enzyme activity of purified His-tag NmGT22 protein on flavonoid substrates (HPLC)
Assay type: biochemical, Nemophila menziesii
Details: NmGT22 protein solution, UDP-glucose; for reaction rate (percentage of transformed substrate): 1 μl of 2 mM substrate in 100 μl, 20 minutes at 30° C.
Experimental: E. coli strain BL2 introduced with pET SUMO-NmGT22 described in Example 5 was cultured using the Overnight Express Auto-induction System 1 (Novagen Inc.) in accordance with the manufacturer's recommended protocol. The transformed E. coli were cultured in 8 ml of prepared culture broth at 37° C. until the OD600 value reached 0.5 (about 4 hours). This E. coli culture broth was added to 200 ml of a culture broth as pre-culture broth followed by final culturing overnight at 25° C.
After having been cultured overnight, the E. coli culture broth was centrifuged (1,000×g, 4° C., 10 minutes), the harvested bacterial cells were suspended in 20 ml of extract (composition: buffer solution (300 mM KCl, 50 mM KH2PO4, 5 mM imidazole) (pH 8.0), 10 μM amidinophenylmethanesulfonyl fluoride hydrochloride (APMSF)), and the E. coli were crushed by ultrasonic treatment followed by centrifuging (1,400×g, 4° C., 20 minutes) and recovering the supernatant. The supernatant was passed through a 0.45 μm filter and subjected to His-Tag purification using Profinia (Bio-Rad Corp.) in accordance with the manufacturer's recommended protocol. The resulting purified protein solution was centrifuged (7,500×g, 4° C., 15 minutes) using a centrifugal filter unit (Ultracel-10K, Amicon Ultra), and the concentrated protein solution was used as “NmGT-22 Protein Solution”. The Avanti HP-26XP centrifuge (rotor: JA-2, Beckman Coulter Inc.) was used for centrifugation.
A reaction solution prepared by mixing 10 μl of protein solution, 2 it of 50 mM UDP-glucose, 10 μl of 1 M Tris-HCl (pH 7.5) and 1 μl of 2 mM apigenin 4′-glucoside (dissolved in 50% aqueous acetonitrile solution containing 0.1% TFA) on ice and bringing to reaction volume of 100 μl with water was held for 20 minutes at 30° C. Subsequently, 100 μl of stop buffer (90% aqueous acetonitrile solution containing 0.1% TFA) were added to stop the reaction followed by analyzing the reaction solution by high-performance liquid chromatography (Prominence, Shimadzu Corp.). Flavone was detected at 330 nm using the Shimadzu PDA SPD-M10AVP for the detector. The Shim-Pack ODS column (150 mm×4.6 mm, Shimadzu Corp.) was used for the column. A liquid A (0.1% aqueous TFA solution) and a liquid B (90% aqueous methanol solution containing 0.1% TFA) were used for elution. Elution was carried out for 10 minutes at a linear concentration gradient from an 8:2 mixture of the two solutions to a 3:7 mixture of the two solutions followed by eluting for 6 minutes using a 3:7 mixture of the two solutions. The flow rate was 0.6 ml/min.

| SMILES | reaction rate (percentage of transformed substrate) [%] | product synthesized by enzyme reaction (2 mM substrate, same reaction conditions) |
| --- | --- | --- |
| O=c1cc(-c2ccc(O[C@@H]3O[C@H](CO)[C@@H](O)[C@H](O)[C@H]3O)cc2)oc2cc(O)cc(O)c12 [apigenin 4′-glucoside] | 100 | – |
| O=c1cc(-c2ccc(O)cc2)oc2cc(O[C@@H]3O[C@H](CO)[C@@H](O)[C@H](O)[C@H]3O)cc(O)c12 [apigenin 7-glucoside] | 2.69 | – |
| O=c1cc(-c2ccc(O)cc2)oc2cc(O)cc(O)c12 [apigenin, 4′,5,7-trihydroxyflavone] | 77.16 | – |
| O=c1cc(-c2ccc(O[C@@H]3O[C@H](CO)[C@@H](O)[C@H](O)[C@H]3O)c(O)c2)oc2cc(O)cc(O)c12 [luteolin 4′-glucoside] | – | Luteolin 4′,7-diglucoside was synthesized |
| O=c1cc(-c2ccc(O)c(O)c2)oc2cc(O[C@@H]3O[C@H](CO)[C@@H](O)[C@H](O)[C@H]3O)cc(O)c12 [luteolin 7-glucoside] | 16.10 | – |
| O=c1cc(-c2ccc(O)c(O)c2)oc2cc(O)cc(O)c12 [luteolin, 3′,4′,5,7-tetrahydroxyflavone] | 99.07 | – |
